Results taken from patent US12215162B2, “BAFF-R targeted chimeric antigen receptor-modified T-cells and uses thereof” (CITY OF HOPE, priority 2016, dated 2025).

Experiments:
SP49 = settings: 100 nM ibrutinib; cited from earlier work
SP49-IR = settings: 100 nM ibrutinib; cited from earlier work
[1] = test system: RS4; 11 (acute lymphoblastic leukemia, ALL); assay: In vivo RS4;11 ALL tumor model, antibody treatment; set-up: species or system NSG mice; settings: 200 μg antibody + NK-92-176V cells + IL-2 IV
Excerpt: FIG. 4A is a schematic showing treatment schedule following Day 0 tumor challenge with minimum lethal dose of tumors. Treatments were given by IV tail vein injections. FIGS. 4B and 4C are images showing chimeric antibodies targeting human BAFF-R elicited in vivo therapeutic effects against B-cell tumors. Bioluminescence images of mice challenged with luciferase-expressing tumors: JeKo-1 (MCL) (FIG. 4B) or RS4; 11 (ALL) (FIG. 4C). Experimental groups received treatment of chimeric BAFF-R mAbs (C55 or C90, as indicated). Control group mice received PBS, NK cells alone, or rituximab on the same schedule. Data are representative of three independent experiments.
(§1) In vivo studies. For tumor models, stable, luciferase-expressing tumors lines were established for bioluminescent imaging in mouse models. Briefly, a luciferase gene was introduced into tumor lines by a lentivirus gene delivery system (pLenti7.3/V5-DEST Gateway Vector Kit, Life Technologies, Carlsbad, CA). The minimum lethal dose per mouse was determined for each tumor cell line by dose titration. Tumor cells were injected intravenously (IV) and mice were monitored by in vivo bioluminescence imaging for minimum tumor dose to ensure engraftment. Minimum lethal tumor doses were 1×10^6 JeKo-1, 5×10^5 RS4; 11, 5×10^5 JeKo-1-CD20-KO, or 2.5×10^4 Z-138 cells. […]

JeKo-1-CD20-KO clone 25 = assay: ADCC against rituximab-resistant JeKo-1-CD20-KO; format: cell-based, human; settings: NK cells E:T 20:1
Protocol: FIGS. 5A, 5B and 5C are images or graphs showing chimeric BAFF-R antibodies induce ADCC on drug resistant lymphoma models in vitro. FIG. 5A is a scatterplot of FACS analysis showing CD20 binding on JeKo-1 cells following CRISPR/HDR knock-out of CD20 gene. CD20 expression on selected CD20−/−clone #25 compared to WT JeKo-1. ADCC effects measured by chromium-51 release after incubation with C55, C90, or rituximab and effectors NK cells (E:T=20:1). Percentage of cell specific lysis of target cells: rituximab-resistant JeKo-1-CD20-KO (FIG. 5B) and ibrutinib-resistant Z-138 and SP49-IR (FIG. 5C). All data are representative of two or more identical experiments. Data are shown as the mean±s.d. of triplicate samples. *P<0.05 compared with NK cells by two-tailed Student's t-test.
Cytotoxicity assays. Target cells (L cells, human tumor lines, primary patient samples) were labeled with chromium-51 (51Cr, Perkin Elmer, Waltham, MA) for a 51Cr release assay. Briefly, antibodies and effectors (NK cells or complement serum standard [Sigma Aldrich, St. Louis, MO]), were added to labeled target cells and incubated up to 18 hours. NK cells were enriched from PBMC (NK cell enrichment kit, Stemcell Technologies, Vancouver, Canada). 51Cr released into supernatant was detected with a Wizard Automatic Gamma Counter (Perkin Elmer).
Generation of JeKo-1-CD20-KO. […]

JeKo-1-CD20-KO = assay: In vivo JeKo-1-CD20-KO tumor model, antibody treatment; set-up: species or system NSG mice; settings: Day 20
Excerpt: FIGS. 6A and 6B are images and FIG. 6C are graphs showing chimeric antibodies targeting human BAFF-R elicited in vivo therapeutic effects against drug resistant B-cell tumors. Bioluminescence images of mice challenged with luciferase-expressing tumors JeKo-1-CD20-KO cells (FIG. 6A) or ibrutinib-resistant Z-138 cells (FIG. 6B) followed by antibody treatments as in FIG. 4. Control group mice received PBS, NK cells alone, or rituximab on the same schedule. […] Tumor free rate and survival differences between experimental and all control groups were analyzed by log-rank test (** P<0.001). Data are representative of three independent experiments.
as §1

[2] = test system: RS4 acute lymphoblastic lymphoma; assay: Chromium release ADCC on RS4; format: cell-based, human; settings: NK cells E:T 20:1, 6 hours
Protocol: FIGS. 21A and 21B are graphs showing humanized antibodies C90-4 and C90-5 analyzed for their specific cytotoxicity of various lymphoma lines. For FIG. 21A, JeKo-1, Z138, and RS4 were subjected to a chromium release assay with humanized antibodies C90-4 and C90-5. Antibodies were administered to the cell lines at concentrations between 0 to 5 μg/mL and incubated for 6 hours with NK cells at an E:T ratio of 20:1. The cell supernatants were analyzed for their chromium content. For FIG. 21B, LY-10, MEC-2, RL, and Raji lymphoma lines were subjected to a chromium release assay with humanized antibodies C90-4 and C90-5. Antibodies were administered to the cell lines at 5 μg/mL and incubated for 6 hours with NK cells at an E:T ratio of 20:1. The cell supernatants were analyzed for their chromium content.
The two variants were further assessed in their ability to initiate ADCC. The antibodies were administered in varying concentration to JeKo-1, Z138, and RS4 lines after a period of chromium uptake. The cells and antibodies were incubated with effector NK cells. The supernatant was analyzed 6 hours post treatment (FIG. 21A).

| Compound | viable cells (SP49) [%] | viable cells (SP49-IR) [%] | tumor growth (bioluminescence) [1] | sensitivity to antibody-mediated cytotoxicity (JeKo-1-CD20-KO clone 25) | tumor burden by bioluminescent imaging (JeKo-1-CD20-KO) | activity (ADCC) [2] |
| --- | --- | --- | --- | --- | --- | --- |
| C=CC(=O)N1CCC[C@@H](n2nc(-c3ccc(Oc4ccccc4)cc3)c3c(N)ncnc32)C1 [ibrutinib] | ~5 | > 90 |  |  |  |  |
| rituximab [reference compound] |  |  | no inhibition | insensitive | substantial tumor burden | not active |
